Test results: patent US10294290B2, “Polypeptides derived from calcitonin receptors and methods of use” (The Research Foundation For The State University of New York, priority 2010, dated 2019)
[ ]: non-standard residue; d: D form. pGlu = O=C1CC[C@@H](C(=O)O)N1

Experiments:
[1] = system: immortalized human fetal osteoblast cell line, hFOB 1.19; experiment: Bone matrix formation, Alizarin Red staining, differentiated osteoblasts; format: cell-based; settings: for calcium deposits (Alizarin dye, fluorescent images): 12.5 μM
Experimental: The effect of CRP on differentiated osteoblasts was analyzed in an immortalized human fetal osteoblast cell line, hFOB 1.19. hFOB cells were incubated for 48 hours in increasing concentrations of CRP (4.6 μM, 9.2 μM, 13.8 μM and 18.4 μM). Bone matrix formation was assayed using a Millipore Osteogenesis Quantitation kit as described above. Phase contrast and fluorescent images of the Alizarin Red stained cells were acquired using an Olympus-IMT microscope according to the manufacturer's (Millipore) specifications. […] Increased bone matrix deposition was also detectable by fluorescence microscopy. Non-amidated CRP had no effect on bone matrix formation.
The sequence specificity of the effect of CRP on bone matrix formation was evaluated using the scrambled peptide, {pGln}NFWQWWIQARKQ (SEQ ID NO:51), which was amidated at the C-terminus. hFOB cells were treated as described above with 18.4 μM of the scrambled peptide, and bone matrix formation was assayed with the Millipore Osteogenesis Quantitation kit as described above.
In cell culture, we also studied the effect of amino acid substitutions in CRP on the formation of bone matrix. hFOB cells were treated with human CRP (KRQWAQFKIQWNQR; SEQ ID NO:42) and, separately, mouse CRP (KRQWTQFKIQWSQR; SEQ ID NO:43) before staining with Alizarin dye to identify the matrix that is formed. Fluorescent images were acquired using an Olympus-IMP microsope.

[2] = system: ovariectomized (OVX) rats; experiment: Micro-CT of cortical bone from femoral midshafts; format: in vivo, Sprague Dawley rats; settings: 15 μM (1 mL) intraperitoneal, five times per week for five weeks, vs vehicle, p<0.05 ANCOVA
Experimental: We performed a micro-CT analysis of cortical bone from the femoral midshafts of ovariectomized (OVX) rats treated with 50% DMSO (OVX Vehicle) or 15 μM rat CRP (OVX 15 μM) Sprague Dawley rats (n=12/group) were ovariectomized at 6 months of age and allowed to lose bone for one month prior to treatment. They were then administered vehicle or 15 μM CRP (1 mL), via intraperitoneal injection, five times per week for five weeks. The animals were then sacrificed and their femora were harvested. The femora were scanned using microCT (Scanco uCT40) and 1.8 mm-long mid-diaphyseal regions of interest were analyzed.

KRQWAQFKIQWNQR (listed as Homo sapiens) [hCRP]
calcium deposits (Alizarin dye, fluorescent images) [1]: produced calcium deposits

rat CRP: rat calcitonin receptor-derived polypeptide (rat homologue, SEQ ID NO:47, shown in FIG. 2) (KRQWAQFKIQWSHRWGRR; listed as Rattus norvegicus)
average periosteal surface [2]: significantly greater | average periosteal volume [2]: significantly greater | average polar moment of inertia [2]: significantly greater | maximum principal moment of inertia [2]: significantly greater | minimum principal moment of inertia [2]: significantly greater

KRQWTQFKIQWSQR (listed as Mus sp.) [mCRP]
calcium deposits (Alizarin dye, fluorescent images) [1]: produced calcium deposits

{pGln}NFWQWWIQARKQ ([pGlu]NFWQWWIQARKQ-NH2; SMILES CC[C@H](C)[C@H](NC(=O)[C@H](Cc1c[nH]c2ccccc12)NC(=O)[C@H](Cc1c[nH]c2ccccc12)NC(=O)[C@H](CCC(N)=O)NC(=O)[C@H](Cc1c[nH]c2ccccc12)NC(=O)[C@H](Cc1ccccc1)NC(=O)[C@H](CC(N)=O)NC(=O)[C@@H]1CCC(=O)N1)C(=O)N[C@@H](CCC(N)=O)C(=O)N[C@@H](C)C(=O)N[C@@H](CCCNC(=N)N)C(=O)N[C@@H](CCCCN)C(=O)N[C@@H](CCC(N)=O)C(N)=O) [scrambled peptide, scrambled control peptide, same amino acids as CRP in scrambled order, reference compound]
bone matrix formation ([1]; 18.4 μM): did not induce bone matrix formation
